The assay is described as follows: mitochondrial fusion inhibitors, confirmation, cell-based, chemical genetic, wild-type and mutant (AID 1361). The following applies: Cell-based mitochondrial fusion phenotype, imaging.
The mark [1] stands for this setting: mutant cells, measured here: mutant cell line IC50.

The structures appear in SMILES notation. pIC50: −log10 of the molar value. The source made the active and inactive calls. The rule behind the calls is not given here.

For `CC1CC2=C(NC(=S)NC2c2cccc(F)c2)/C(=C/c2cccc(F)c2)C1` (centres undefined), the pIC50 (in general, −log10 of the IC50, conventionally taken in molar units) reads like this: (WT cells) 5.09; under setting [1], under 4.60.
Consider `CCCc1c(C)[nH]c2ccc(NC(C)=O)cc2c1=O`, for which the IC50 – broadly, the concentration needed to halve the response being measured – (WT cells) was > 25 µM (inactive). In addition, the pIC50 under setting [1] is under 4.60.
For `Cc1c(N(C(=O)Nc2ccccc2)C2=NCC(C)S2)c(=O)n(-c2ccccc2)n1C` (centres undefined), in that order: > 25 µM (inactive) and under 4.60.
In the case of `COC(=O)c1ccc(CSc2nc3ccccc3c(=O)n2CC(C)C)o1`, for the setting “WT cells”, the IC50 is > 25 µM (inactive). Also, the pIC50 under setting [1] is under 4.60.
Consider `CCC[C@@H]1C[C@@]1(CCC)[C@@H](NP(=O)(c1ccccc1)c1ccccc1)c1ccc(C(=O)OC)cc1`, for which the pIC50 is, setting by setting: (WT cells) 4.90; under setting [1], under 4.60.
Turning to `Fc1ccc(Cn2nnnc2C(c2cccs2)N2CCCCCC2)cc1` (centres undefined), where the note is “WT cells”, the IC50 was > 25 µM (inactive). Further, the pIC50 under setting [1] is under 4.60.
Turning to `CCOC(=O)CC(=O)CSc1nc(C)nc2c1oc1ccccc12`, the IC50 (WT cells) is > 25 µM (inactive). Also, the pIC50 under setting [1] is under 4.60.
As for `O=S(=O)(Nc1ccc(O)c(Sc2nc3ccccc3s2)c1)c1cccc2ccccc12`, the pIC50 reads like this: (WT cells) 4.97; under setting [1], under 4.60.
In the case of `COc1ccc(/C=C/C(=O)N2CCN(c3ccccn3)CC2)c2ccccc12`, the pIC50 was 4.70 (WT cells) and under 4.60 under setting [1].
On to `CCOc1ccc2c(c1)C(C)=CC(C)(C)N2S(=O)(=O)c1ccc(C)cc1`, for which the negative-log IC50 (pIC50) runs as follows: (WT cells) 4.86; under setting [1], 4.64.
For `O=C(Nc1cc(Cl)ccc1Oc1ccccc1)c1ccc(F)cc1`, in that order: 4.64 and under 4.60.
With `CC(C)=CCc1c(O)c(CC=C(C)C)c2c(c1O)C(=O)CC(c1ccc(O)cc1)O2` (centres undefined), the pIC50 reads like this: (WT cells) 4.97; under setting [1], under 4.60.
As to `Cc1cc(Nc2ccccc2)c2c([N+](=O)[O-])cc(C)c(C)c2n1`, the IC50 (WT cells) was > 25 µM (inactive). Under setting [1], the negative logarithm of the IC50 (pIC50) is under 4.60.
Consider `CCNc1nc(SCCOc2ccc(Cl)cc2Cl)nc(N(C)C)n1`, for which the negative logarithm of the IC50 (pIC50) is, setting by setting: (WT cells) 5.08; under setting [1], 4.62.
In the case of `Cn1c(=O)cc(OCCCC(=O)N2CCN(c3ccccc3)CC2)c2ccccc21`, for the setting “WT cells”, the IC50 was > 25 µM (inactive). Under setting [1], the pIC50 is under 4.60.
Turning to `C1CCN=C(Nc2nc3c(s2)CCCC3)CC1`, the IC50 (WT cells) was > 25 µM (inactive). The compound also showed a pIC50 under setting [1] of under 4.60.
In the case of `COc1cc(C(=O)OC2CC3CCC2(C)C3(C)C)ccc1OC(C)=O` (centres undefined), the pIC50 reads like this: (WT cells) 4.70; under setting [1], under 4.60.
For `COc1ccc(/C=N/NC(=O)c2ccn[nH]2)cc1COc1ccc(Cl)cc1Cl`, in that order: 4.64 and under 4.60.
Turning to `Cc1ccc(-n2c(-c3ccccc3)cc(/C=N/NC(=O)CC#N)c2-c2ccccc2)cc1`, under “WT cells”, the IC50 is > 25 µM (inactive). Under setting [1], this compound showed a pIC50 of under 4.60.
In the case of `C=CCn1c(SCC(=O)Nc2cccc(C(=O)OC)c2)nnc1C(C)NC(=O)c1cccs1` (centres undefined), the IC50 (WT cells) was > 25 µM (inactive). The compound also had a negative logarithm of the IC50 (pIC50) under setting [1] of under 4.60.
Regarding `Cc1ccc(Nc2nc(N)c([N+](=O)[O-])c(NCc3ccco3)n2)cc1C`, the negative logarithm of the IC50 (pIC50) (WT cells) is 4.81 and the negative logarithm of the IC50 (pIC50) under setting [1] is under 4.60.
For `CCOC(=O)/C(=C\c1cccnc1)C(=O)c1cc(C(C)=O)c(Nc2ccccc2)s1`, in that order: 5.31 and under 4.60.
Take `O=C(O)CCc1ccc(-c2ccc(F)cc2)n1Cc1ccco1`: the IC50 (WT cells) is > 25 µM (inactive). In addition, under setting [1], the pIC50 is under 4.60.
For `COc1ccc(CN(C)C2c3ccccc3-c3ccccc32)cc1`, the pIC50 by setting is: (WT cells) 4.78; under setting [1], 4.77.
As to `O=C(NCc1nnc(SCc2ccc(C(F)(F)F)cc2)n1-c1ccccc1)C12CC3CC(CC(C3)C1)C2`, the negative-log IC50 (pIC50) is 4.74 (WT cells) and under 4.60 under setting [1].
For the compound `C(=N\Nc1nc(N2CCCCCC2)nc(N2CCCCCC2)n1)/c1ccccc1`, the pIC50 (WT cells) is 5.03 and the pIC50 under setting [1] is under 4.60.
On to `CCN(CC)CCNC(=O)Cn1c(-c2ccccn2)nc2ccccc21`, for which the negative-log IC50 (pIC50) under setting [1] was under 4.60.
On to `CSCc1nnc(NC(=O)c2ccc(S(=O)(=O)N(CC(C)C)CC(C)C)cc2)o1`, for which, where the note is “WT cells”, the IC50 was > 25 µM (inactive). The pIC50 under setting [1] is under 4.60.
On to `CCn1cc(C(=O)OCC(=O)c2cc(C)n(-c3cccc(C(F)(F)F)c3)c2C)c(=O)c2ccc(C)nc21`, for which the negative logarithm of the IC50 (pIC50) was 4.95 (WT cells) and under 4.60 under setting [1].
For the compound `CCCC[n+]1c(-c2ccc(Cl)cc2Cl)csc1Nc1ccccc1`, the pIC50 runs as follows: (WT cells) 5.19; under setting [1], under 4.60.
For `CN(C)c1ccc(C(CNS(=O)(=O)c2ccc(F)c(F)c2)c2c[nH]c3ccccc23)cc1` (centres undefined), the pIC50 is, setting by setting: (WT cells) 4.87; under setting [1], under 4.60.
On to `Cc1cc(N2C(=O)C=CC2=O)c([N+](=O)[O-])cc1C`, for which the IC50 (WT cells) was > 25 µM (inactive). Moreover, the pIC50 under setting [1] was under 4.60.
As to `CCN(CC)C(=O)C1CC(=O)N(c2ccc(F)c(Cl)c2)C1` (centres undefined), the IC50 (WT cells) is > 25 µM (inactive). Under setting [1], the pIC50 was under 4.60.
In the case of `c1ccc2c(-c3c[nH]c4ccccc34)c3ccccc3nc2c1`, the negative logarithm of the IC50 (pIC50) was 4.82 (WT cells) and under 4.60 under setting [1].
Turning to `CCc1ccc(CCC(=O)Nc2ccccc2C(=O)O)o1`, the IC50 (WT cells) was > 25 µM (inactive). This compound also showed a negative-log IC50 (pIC50) under setting [1] of under 4.60.
Regarding `COc1ccc(S(=O)(=O)N2c3ccccc3OCC2C(C)(C)C)cc1` (centres undefined), the negative-log IC50 (pIC50) was 4.73 (WT cells) and under 4.60 under setting [1].
`CCC1(C)Cc2c(sc3[nH]c(=S)n(Cc4ccccc4)c(=O)c23)CO1` (centres undefined): the pIC50 by setting is: (WT cells) 4.67; under setting [1], under 4.60.
As for `CCOC(=O)c1c(C)[nH]c(C)c1C(=O)CSc1nnc(-c2ccncc2)n1C`, the IC50 (WT cells) is > 25 µM (inactive). Also, under setting [1], the negative-log IC50 (pIC50) is under 4.60.
As for `CCn1c(C(=O)N2CCc3ccccc3C2)cc2oc3ccccc3c21`, the pIC50 runs as follows: (WT cells) 5.05; under setting [1], under 4.60.
Take `COc1ccc(C2C(C#N)=C(SC)NC3=C2C(=O)CC(C)(C)C3)cc1` (centres undefined): the IC50 (WT cells) is > 25 µM (inactive). Under setting [1], this compound had a negative-log IC50 (pIC50) of under 4.60.
As to `CCN(CC)c1ccc(/C=N/NC(=S)NCc2ccco2)cc1`, the pIC50 is, setting by setting: (WT cells) 4.94; under setting [1], under 4.60.
Take `O=C(COC(=O)c1ccccc1Cc1ccccc1)Nc1ccc(SC(F)F)cc1`: the pIC50 by setting is: (WT cells) 5.23; under setting [1], under 4.60.
For `Cc1ccc(S(=O)(=O)c2nc(Nc3ccccc3)sc2Cl)cc1`, in that order: 4.85 and under 4.60.
As for `COc1ccc(NC(=O)c2ccc(-c3ccccc3C(F)(F)F)o2)cc1`, the pIC50 was 4.78 (WT cells) and 4.66 under setting [1].
`COC(=O)Nc1snnc1C`: where the note is “WT cells”, the IC50 was > 25 µM (inactive). Moreover, under setting [1], the pIC50 is under 4.60.
Turning to `Cc1nc(=O)c(-c2ccccc2)c(C)n1CCCCCC(=O)O`, for the setting “WT cells”, the IC50 is > 25 µM (inactive). Under setting [1], this compound had a pIC50 of under 4.60.
As for `Nc1ccc2nc(CN3CCOCC3)[nH]c2c1`, the IC50 (WT cells) is > 25 µM (inactive). For the same compound, the pIC50 under setting [1] was under 4.60.
With `Cc1cc(-c2ccccc2)nc2cc(C(=O)N(Cc3ccccc3)Cc3ccccc3)nn12`, the pIC50 is 5.08 (WT cells) and under 4.60 under setting [1].
As to `COC(=O)C1C(=O)NCC1c1ccccc1` (centres undefined), under “WT cells”, the IC50 was > 25 µM (inactive). Under setting [1], this compound gave a negative-log IC50 (pIC50) of under 4.60.
`COc1cccc(C2=CC(c3ccccc3)n3nnnc3N2)c1` (centres undefined): the IC50 (WT cells) was > 25 µM (inactive). Under setting [1], this compound gave a negative logarithm of the IC50 (pIC50) of under 4.60.

Source of the values: PubChem BioAssay AID1361 (SRMLSC, 2008).
